pIC50: −log10 of the molar value.

The target in the test is T1, human TLR9 (Homo sapiens, UniProt Q9NR96).
T1 sequence (Q9NR96 26-1032): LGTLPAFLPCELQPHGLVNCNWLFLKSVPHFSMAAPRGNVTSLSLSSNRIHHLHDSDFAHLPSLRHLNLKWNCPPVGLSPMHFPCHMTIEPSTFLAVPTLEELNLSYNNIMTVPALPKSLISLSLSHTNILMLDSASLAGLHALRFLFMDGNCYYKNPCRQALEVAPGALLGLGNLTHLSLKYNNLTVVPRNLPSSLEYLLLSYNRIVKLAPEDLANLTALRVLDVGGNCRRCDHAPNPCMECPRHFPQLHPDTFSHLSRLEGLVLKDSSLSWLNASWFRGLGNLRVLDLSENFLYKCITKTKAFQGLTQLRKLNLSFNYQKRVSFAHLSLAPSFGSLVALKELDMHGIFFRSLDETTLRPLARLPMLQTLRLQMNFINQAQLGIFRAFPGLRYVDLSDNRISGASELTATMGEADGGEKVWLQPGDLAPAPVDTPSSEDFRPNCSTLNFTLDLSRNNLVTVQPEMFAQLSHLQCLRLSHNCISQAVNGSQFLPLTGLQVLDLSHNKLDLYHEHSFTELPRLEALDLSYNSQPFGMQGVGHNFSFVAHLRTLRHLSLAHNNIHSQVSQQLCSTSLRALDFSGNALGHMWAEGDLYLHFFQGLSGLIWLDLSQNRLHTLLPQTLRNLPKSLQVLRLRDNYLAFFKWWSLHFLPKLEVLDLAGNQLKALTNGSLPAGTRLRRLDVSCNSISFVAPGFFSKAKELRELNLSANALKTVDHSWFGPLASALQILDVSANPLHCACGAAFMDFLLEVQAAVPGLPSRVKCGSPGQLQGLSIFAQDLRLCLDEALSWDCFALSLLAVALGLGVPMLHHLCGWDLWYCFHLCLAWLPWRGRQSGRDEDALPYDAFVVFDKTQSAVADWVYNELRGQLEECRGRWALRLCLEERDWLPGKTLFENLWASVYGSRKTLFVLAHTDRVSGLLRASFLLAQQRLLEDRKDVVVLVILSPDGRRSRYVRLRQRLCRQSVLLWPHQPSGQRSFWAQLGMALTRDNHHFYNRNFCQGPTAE
Kind of test: HEK293-Blue-hTLR-9 cells assay (SEAP reporter, ODN2006 stimulation). Type of test: cell-based. The settings on record: HEK293-Blue-hTLR9 cells, ODN2006, 20 hrs. The method, then: The following tests were carried out in order to determine the activity of the compounds of this invention in HEK293-Blue-hTLR-7/8/9 cells assay.
HEK293-Blue-hTLR-9 Cells Assay:
A stable HEK293-Blue-hTLR-9 cell line was purchased from InvivoGen (Cat. #: hkb-htlr9, San Diego, Calif., USA). These cells were originally designed for studying the stimulation of human TLR9 by monitoring the activation of NF-κB. A SEAP (secreted embryonic alkaline phosphatase) reporter gene was placed under the control of the IFN-β minimal promoter fused to five NF-κB and AP-1-binding sites. The SEAP was induced by activating NF-κB and AP-1 via stimulating HEK-Blue hTLR9 cells with TLR9 ligands. Therefore the reporter expression was declined by TLR9 antagonist under the stimulation of a ligand, such as ODN2006 (Cat. #: tlr1-2006-1, Invivogen, San Diego, Calif., USA), for incubation of 20 hrs. The cell culture supernatant SEAP reporter activity was determined using QUANTI-Blue™ kit (Cat. #: rep-qb1, Invivogen, San Diego, Calif., USA) at a wavelength of 640 nm, a detection medium that turns purple or blue in the presence of alkaline phosphatase.
HEK293-Blue-hTLR9 cells were incubated at a density of 250,000˜450,000 cells/mL in a volume of 170 μL in a 96-well plate in Dulbecco's Modified Eagle's medium (DMEM) containing 4.5 g/L glucose, 50 U/mL penicillin, […], 2 mM L-glutamine, 10% (v/v) heat-inactivated fetal bovine serum with addition of 20 μL test compound in a serial dilution in the presence of final DMSO at 1% and 10 μL of 20 uM ODN2006 in above DMEM, perform incubation under 37° C. in a CO2 incubator for 20 hrs. Then 20 μL of the supernatant from each well was incubated with 180 μL Quanti-blue substrate solution at 37° C. for 2 hrs and the absorbance was read at 620˜655 nm using a spectrophotometer. The signalling pathway that TLR9 activation leads to downstream NF-κB activation has been widely accepted, and therefore similar reporter assay was modified for evaluating TLR9 antagonist.
By pIC50 is commonly meant the negative decadic logarithm of the IC50, by convention in mol/L. On to `C[C@H]1C[C@@H](NCc2ccc(N3CCNCC3)cc2)CN(c2ccc(Cl)c3ncccc23)C1` [Example 22, (3R,5S)-1-(8-chloro-5-quinolyl)-5-methyl-N-[(4-piperazin-1-ylphenyl)methyl]piperidin-3-amine], for which the pIC50 was 6.74.

`C[C@H]1C[C@@H](N2Cc3ccccc3C2)CN(c2ccc(C#N)c3ncccc23)C1` [Example R2, reference compound] gave a pIC50 of 5.06.

`C[C@H]1C[C@@H](NCc2ccc(C3CCNCC3)cc2)CN(c2ccc(C#N)c3ncccc23)C1` [Example 2, 5-[(3S,5R)-3-methyl-5-[[4-(4-piperidyl)phenyl]methylamino]-1-piperidyl]quinoline-8-carbonitrile] gave a pIC50 of 7.12.

`C[C@H]1C[C@@H](NCc2ccc(N3CCN(C)CC3)cn2)CN(c2ccc(C#N)c3ncsc23)C1` [Example 18, 7-[(3S,5R)-3-methyl-5-[[5-(4-methylpiperazin-1-yl)-2-pyridyl]methylamino]-1-piperidyl]-1,3-benzothiazole-4-carbonitrile] had a pIC50 of 6.94.

For the compound `C[C@H]1C[C@@H](NCc2cnc(N3CCNCC3)cn2)CN(c2ccc(C#N)c3ncccc23)C1` [Example 31, 5-[(3S,5R)-3-methyl-5-[(5-piperazin-1-ylpyrazin-2-yl)methylamino]-1-piperidyl]quinoline-8-carbonitrile], the pIC50 is 7.33.

In turn, `C[C@H]1C[C@@H](N2CCc3cc(N4CCNCC4)ccc3C2)CN(c2ccc(C#N)c3ncccc23)C1` (relative stereo) [Example 24, 5-[cis-3-methyl-5-(6-piperazin-1-yl-3,4-dihydro-1H-isoquinolin-2-yl)-1-piperidyl]quinoline-8-carbonitrile] had a pIC50 of 7.15.

Consider `CC(N[C@@H]1C[C@H](C)CN(c2ccc(C#N)c3ncccc23)C1)c1ccc(N2CCNCC2)cc1` (stereo partly drawn) [Example 26, 5-[(3S,5R)-3-methyl-5-[1-(4-piperazin-1-ylphenyl)ethylamino]-1-piperidyl]quinoline-8-carbonitrile], for which the negative-log IC50 (pIC50) was 7.26.

The compound `C[C@H]1C[C@@H](NCc2ccc(N3CCNCC3)cn2)CN(c2ccc(C#N)c3ncccc23)C1` [Example 5, 5-[(3S,5R)-3-methyl-5-[(5-piperazin-1-yl-2-pyridyl)methylamino]-1-piperidyl]quinoline-8-carbonitrile] had a pIC50 of 7.17.

`C[C@H]1C[C@@H](NCc2cccc(N3CCNCC3)c2)CN(c2ccc(C#N)c3ncccc23)C1` [Example 8, 5-[(3S,5R)-3-methyl-5-[(3-piperazin-1-ylphenyl)methylamino]-1-piperidyl]quinoline-8-carbonitrile] gave a pIC50 of 7.06.

The compound `C[C@H]1C[C@@H](NCc2ccc(N3CCNCC3)cc2)CN(c2ccc(C#N)n3nccc23)C1` [Example 21, 4-[(3S,5R)-3-methyl-5-[(4-piperazin-1-ylphenyl)methylamino]-1-piperidyl]pyrazolo[1,5-a]pyridine-7-carbonitrile] gave a pIC50 of 7.03.

As to `C[C@H]1C[C@@H](NCc2cccc(N3CCN(C)CC3)c2)CN(c2ccc(C#N)c3ncccc23)C1` [Example 6, 5-[(3S,5R)-3-methyl-5-[[3-(4-methylpiperazin-1-yl)phenyl]methylamino]-1-piperidyl]quinoline-8-carbonitrile], the pIC50 was 7.15.

Turning to `C[C@H]1C[C@@H](NCc2cnc(N3CCN(C)CC3)nc2)CN(c2ccc(C#N)c3ncccc23)C1` [Example 16, 5-[(3S,5R)-3-methyl-5-[[2-(4-methylpiperazin-1-yl)pyrimidin-5-yl]methylamino]-1-piperidyl]quinoline-8-carbonitrile], the negative-log IC50 (pIC50) is 7.11.

The compound `C[C@H]1C[C@@H](NCc2ccccc2)CN(c2ccc(C#N)c3ncccc23)C1` [Example R1, reference compound] had a pIC50 of 5.73.

Compound `C[C@H]1C[C@@H](NCc2ccc(N3CCNCC3)cc2F)CN(c2ccc(C#N)c3ncccc23)C1` [Example 4, 5-[(3R,58)-3-[(2-fluoro-4-piperazin-1-yl-phenyl)methylamino]-5-methyl-1-piperidyl]quinoline-8-carbonitrile] had a pIC50 of 7.03.

As to `C[C@H]1C[C@@H](NCc2ccc(N3CCNCC3)cc2)CN(c2ccc(C#N)c3ncccc23)C1` [Example 1, 5-[(3S,5R)-3-methyl-5-[(4-piperazin-1-ylphenyl)methylamino]1-piperidyl]quinoline-8-carbonitrile], the pIC50 was 7.26.

In turn, `C[C@H]1C[C@@H](N2Cc3cc(N4CCNCC4)cnc3C2)CN(c2ccc(C#N)c3ncccc23)C1` [Example 23, 5-[(3S,5R)-3-methyl-5-(3-piperazin-1-yl-5,7-dihydropyrrolo[3,4-b]pyridin-6-yl)-1-piperidyl]quinoline-8-carbonitrile] had a pIC50 of 7.04.

Source of the values: patent US20220395496A1 (Hoffmann-La Roche Inc., priority 2019, published 2022).
